The record followed here is patent US9725462B2, “Pyridopyrimidine derivatives as protein kinase inhibitors” (Merck Patent GmbH, priority 2012, dated 2017).

The IC50 is the point on the concentration scale where inhibition reaches its midpoint. Low values mean higher potency, high ones lower potency.

For the test, the target named is T1, SYK (Homo sapiens, UniProt P43405).
T1 construct: 2.5 nM SYK, 400 nM Biotin-Aha-Aha-KEDPDYEWPSAKK
The test is described as follows: SYK Flash Plate Assay (enzyme assay). In kind it is biochemical. The settings on record: Syk inhibition. From the text: The following abbreviations refer respectively to the definitions below: • aq (aqueous), h (hour), g (gram), L (liter), mg (milligram), MHz (Megahertz), min. (minute), mm (millimeter), mmol (millimole), mM (millimolar), m.p. (melting point), eq (equivalent), mL (milliliter), L (microliter), ACN (acetonitrile), AcOH (acetic acid), CDCl3 (deuterated chloroform), CD3OD (deuterated methanol), CH3CN (acetonitrile), c-hex (cyclohexane), DCC (dicyclohexyl carbodiimide), DCM (dichloromethane), DIC (diisopropyl carbodiimide), DIEA (diisopropylethyl-amine), DMF (dimethylformamide), DMSO (dimethylsulfoxide), DMSO-d6 (deuterated dimethylsulfoxide), EDC (1-(3-dimethyl-amino-propyl)-3-ethylcarbodiimide), ESI (Electro-spray ionization), EtOAc (ethyl acetate), Et2O (diethyl ether), EtOH (ethanol), HATU (dimethylamino-([1,2,3]triazolo[4,5-b]pyridin-3-yloxy)-methylene]-dimethyl-ammonium hexafluorophosphate), HPLC (High Performance Liquid Chromatography), i-PrOH (2-propanol), K2CO3 (potassium carbonate), LC (Liquid Chromatography), MeOH (methanol), MgSO4 (magnesium sulfate), MS (mass spectrometry), MTBE (Methyl tert-butyl ether), NaHCO3 (sodium bicarbonate), NaBH4 (sodium borohydride), NMM (N-methyl morpholine), NMR (Nuclear Magnetic Resonance), PyBOP (benzotriazole-1-yl-oxy-tris-pyrrolidino-phosphonium hexafluorophosphate), RT (room temperature), Rt (retention time), SPE (solid phase extraction), TBTU (2-(1-H-benzotriazole-1-yl)-1,1,3,3-tetramethyluromium tetrafluoro borate), TEA (triethylamine), TFA (trifluoroacetic acid), THF (tetrahydrofuran), TLC (Thin Layer Chromatography), UV (Ultraviolet). Description of the In Vitro Assays SYK Flash Plate Assay
The kinase assay is performed either as 384-well Flashplate assay (for e.g. Topcount measurement) or as 384-well Image-Flashplate assay (for LEADseeker measurement).
2.5 nM SYK, 400 nM Biotin-Aha-Aha-KEDPDYEWPSAKK
and 10 μM ATP (spiked with 0.3 μCi 33P-ATP/well) are incubated in a total volume of 50 μl (60 mM Hepes, 10 mM MgCl2, 1.2 mM Dithiothreitol, 0.02% Brij35, 0.1% BSA, pH 7.5) with or without test compound for 1 hours at 30° C. The reaction is stopped with 25 μl 200 mM EDTA. After 30 Min at 30° C. the liquid is removed and each well washed thrice with 100 μl 0.9% sodium chloride solution. Non-specific reaction is determined in presence of 0.1 μM Staurosporine. Radioactivity is measured with Topcount (when using Flashplates) or with LEADseeker (when using Image-Flashplates) respectively. Results (e.g. IC50-values) are calculated with program tools provided by the IT-department (e.g. Symyx Assay Explorer, Genedata Screener). In Vivo Assays CIA

Structures can show the parent of a compound that is named as a salt. Where only a bound is given, the exact number is not on record here.

`Cc1ncc(-c2c[nH]c3cc(C#N)ccc23)c2nc(N[C@H]3CCCC[C@H]3N)ncc12` (relative stereo) [Compound A85, 3-[2-((cis)-2-amino-cyclohexylamino)-5-methyl-pyrido[4,3-d]pyrimidin-8-yl]-1H-indole-6-carbonitrile] yielded a 50% inhibitory concentration (IC50) of 100 to 1000 nM.

`N#Cc1cccc2c(-c3cncc4cnc(N[C@@H]5CCCC[C@@H]5N)nc34)c[nH]c12` [Compound A72, 3-[2-((1R,2S)-2-amino-cyclohexylamino)-pyrido[4,3-d]pyrimidin-8-yl]-1H-indole-7-carbonitrile] came in with an IC50 of less than 100 nM.

`COC[C@H](N)CNc1ncc2cncc(-c3c[nH]c4cc(C(F)(F)F)ccc34)c2n1` [Compound A61, (2R)-3-Methoxy-N1-[8-[6-(trifluoromethyl)-1H-indol-3-yl]pyrido[4,3-d]pyrimidin-2-yl]propane-1,2-diamine] yielded an IC50 of 1000 to 50000 nM.

Take `COC[C@H](N)CNc1ncc2c(N)ncc(-c3cnn(C)c3)c2n1` [Compound A20, N2-((R)-2-Amino-3-methoxy-propyl)-8-(1-methyl-1H-pyrazol-4-yl)-pyrido[4,3-d]pyrimidine-2,5-diamine]: the IC50 lay within 100 to 1000 nM.

For `Cn1cc(-c2cncc3cnc(N[C@@H]4CCCC[C@@H]4N)nc23)cn1` [Compound A2, (1R,2S)—N-[8-(1-Methyl-1H-pyrazol-4-yl)-pyrido[4,3-d]pyrimidin-2-yl]-cyclohexane-1,2-diamine hydrochloride], the half-inhibitory concentration (IC50) lay in the range of 100 to 1000 nM.

For the compound `COc1ccc2c(-c3cncc4cnc(N[C@H]5CCCC[C@H]5N)nc34)c[nH]c2c1` (stereo in doubt) [Compound A40, (1S,2R)-N-[8-(6-Methoxy-1H-indol-3-yl)-pyrido[4,3-d]pyrimidin-2-yl]-cyclohexane-1,2-diamine], the half-maximal inhibitory concentration (IC50) is less than 100 nM.

As for `N#Cc1cnc(N)c2cnc(N[C@H]3CCCC[C@H]3N)nc12` (relative stereo) [Compound A9, 5-Amino-2-(cis2-amino-cyclohexylamino)-pyrido[4,3-d]pyrimidine-8-carbonitrile], the 50% inhibitory concentration (IC50) was in the range of 1000 to 50000 nM.

`CC(C)C[C@@H](Nc1ncc2cncc(-c3c[nH]c4cc(C(F)(F)F)ccc34)c2n1)C(N)=O` [Compound A62, (2R)-4-Methyl-2-[[8-[6-(trifluoromethyl)-1H-indol-3-yl]pyrido[4,3-d]-pyrimidin-2-yl]amino]pentanamide] returned an IC50 of less than 100 nM.

`COC[C@H](N)CNc1ncc2cncc(-c3c[nH]c4cc(C#N)ccc34)c2n1` [Compound A67, 3-[2-((R)-2-Amino-3-methoxy-propylamino)-pyrido[4,3-d]pyrimidin-8-yl]-1H-indole-6-carbonitrile] returned an IC50 of 1000 to 50000 nM.

In turn, `N[C@@H]1CCCC[C@@H]1Nc1ncc2cncc(-c3c[nH]c4cc(C(F)(F)F)ccc34)c2n1` (stereo in doubt) [Compound A41, (1S,2R)-N-[8-(6-Trifluoromethyl-1H-indol-3-yl)-pyrido[4,3-d]pyrimidin-2-yl]-cyclohexane-1,2-diamine] came in with a 50% inhibitory concentration (IC50) of less than 100 nM.

`COc1cccc(C#Cc2cncc3cnc(N[C@H]4CCCC[C@H]4N)nc23)c1` (stereo in doubt) [Compound A35, (1S,2R)-N-[8-(3-Methoxy-phenylethynyl)-pyrido[4,3-d]pyrimidin-2-yl]-cyclohexane-1,2-diamine] registered a concentration for half-maximal inhibition (IC50) of 100 to 1000 nM.

`Cc1cccc(-c2cncc3cnc(N[C@H]4CCCC[C@H]4N)nc23)c1` (stereo in doubt) [Compound A31, (1S,2R)-N-(8-m-Tolyl-pyrido[4,3-d]pyrimidin-2-yl)-cyclohexane-1,2-diamine]: the concentration for half-maximal inhibition (IC50) lay within 100 to 1000 nM.

The compound `N[C@H]1CCCC[C@H]1Nc1ncc2cncc(-c3cc4cccc(F)c4[nH]3)c2n1` [Compound A81] returned an IC50 of 100 to 1000 nM.

In the case of `Cc1cccc(-c2cncc3cnc(N[C@H](CC(C)C)C(N)=O)nc23)c1` [Compound A32, (R)-4-Methyl-2-(8-m-tolyl-pyrido[4,3-d]pyrimidin-2-ylamino)-pentanoic acid amide], the IC50 lay within 1000 to 50000 nM.
